Source: patent publication US20090191253A2 (Creabilis Therapeutics S.P.A., priority 2005, published 2009)

How the values were obtained:
Type in all cases: biochemical
LCK = biological target: T1, LCK (Homo sapiens, UniProt P06239); test: Kinase inhibition profiling LCK (ELISA)
T1 construct: made in house; host or cells: baculovirus expression system
Protocol: (§1) In particular, the target kinases were Tyrosine kinases and Serine/Threonine kinases.
(§2) Each test compound was weighed and dissolved in DMSO to make 1 mM stock solution. The stock solution was diluted with DMSO to achieve 20 μM. The compound solution was diluted with the assay buffer to achieve 0.8 μM.

TYK2 = biological target: T2, TYK2 (Homo sapiens, UniProt P29597); test: Kinase inhibition profiling TYK2 (ELISA)
T2 construct: Kinase domain (KD) of human TYK2 [871-1187 amino; made in house; host or cells: baculovirus expression system
Protocol: as §2

FLT3 = biological target: T3, FLT3 (Homo sapiens, UniProt P36888); test: Kinase inhibition profiling FLT3 (ELISA)
T3 construct: made in house; host or cells: baculovirus expression system
Protocol: as §2

EphB4 = biological target: T4, EphB4 (Homo sapiens, UniProt P54760); test: Kinase inhibition profiling EphB4 (ELISA)
T4 construct: Cytoplasmic domain of human EphB4 [577-987 amino; made in house; host or cells: baculovirus expression system
Protocol: as §2

FGFR2 = biological target: T5, FGFR2 (Homo sapiens, UniProt P21802); test: Kinase inhibition profiling FGFR2 (ELISA); also: ATP 20 µM
T5 construct: Cytoplasmic domain of human FGFR2 [399-821 amino; made in house; host or cells: baculovirus expression system
Protocol: as §2

PDGFRα = biological target: T6, PDGFRα (Homo sapiens, UniProt P16234); test: Kinase inhibition profiling PDGFRα (ELISA)
T6 construct: Cytoplasmic domain of human PDGFRα [550-1089; made in house; host or cells: baculovirus expression system
Protocol: as §2

SRM = biological target: T7, SRM (Homo sapiens, UniProt Q9H3Y6); test: Kinase inhibition profiling SRM (ELISA)
T7 construct: Kinase domain (KD) of human SRM [215-489 amino acids; made in house; host or cells: baculovirus expression system
Protocol: as §2

CaMK2α = biological target: T8, CaMK2α (Homo sapiens, UniProt Q9UQM7); test: Kinase inhibition profiling CaMK2α (IMAP)
T8 construct: His (N); made in house; host or cells: baculovirus expression system
Protocol: as §1, §2

TrkB = biological target: T9, TrkB (Homo sapiens, UniProt Q16620); test: Kinase inhibition profiling TrkB (ELISA)
T9 construct: Cytoplasmic domain of human TRKB [456-822 amino; made in house; host or cells: baculovirus expression system
Protocol: as §1, §2

ALK = biological target: T10, ALK (Homo sapiens, UniProt Q9UM73); test: Kinase inhibition profiling ALK (ELISA)
T10 construct: Cytoplasmic domain of human ALK [1089-1620; His (N, cleaved yes); made in house; host or cells: baculovirus expression system
Protocol: as §2

IRAK4 = biological target: T11, IRAK4 (Homo sapiens, UniProt Q9NWZ3); test: Kinase inhibition profiling IRAK4 (IMAP); also: ATP 80 µM
T11 construct: Kinase domain (KD) of Human IRAK4 [172-460 amino; GST (N); made in house; host or cells: baculovirus expression system
Protocol: as §2

CHK2 = biological target: T12, CHK2 (Homo sapiens, UniProt O96017); test: Kinase inhibition profiling CHK2 (IMAP)
T12 construct: His (N); made in house; host or cells: baculovirus expression system
Protocol: as §2

LYNa = biological target: T13, LYNa (Homo sapiens, UniProt P07948); test: Kinase inhibition profiling LYNa (ELISA)
T13 construct: made in house; host or cells: baculovirus expression system
Protocol: as §2

YES = biological target: T14, YES (Homo sapiens, UniProt P07947); test: Kinase inhibition profiling YES (ELISA)
T14 construct: made in house; host or cells: baculovirus expression system
Protocol: as §1, §2

RON = biological target: T15, RON (Homo sapiens, UniProt Q04912); test: Kinase inhibition profiling RON (ELISA)
T15 construct: Cytoplasmic domain of human RON [979-1400 amino; made in house; host or cells: baculovirus expression system
Protocol: as §2

CaMK4 = biological target: T16, CaMK4 (Homo sapiens, UniProt Q16566); test: Kinase inhibition profiling CaMK4 (IMAP)
T16 construct: His (N); made in house; host or cells: baculovirus expression system
Protocol: as §1, §2

PKACα = biological target: T17, PKACα (Homo sapiens, UniProt P17612); test: Kinase inhibition profiling PKACα (IMAP)
T17 construct: made in house; host or cells: baculovirus expression system
Protocol: as §1, §2

JAK3 = biological target: T18, JAK3 (Homo sapiens, UniProt P52333); test: Kinase inhibition profiling JAK3 (ELISA); also: ATP 5 µM
T18 construct: Kinase domain (KD) of human JAK3 [795-1124 amino; made in house; host or cells: baculovirus expression system
Protocol: as §2

FGR = biological target: T19, FGR (Homo sapiens, UniProt P09769); test: Kinase inhibition profiling FGR (ELISA); also: ATP 5 µM
T19 construct: His (N, cleaved yes); made in house; host or cells: baculovirus expression system
Protocol: as §1, §2

MER = biological target: T20, MER (Homo sapiens, UniProt Q12866); test: Kinase inhibition profiling MER (ELISA)
T20 construct: made in house; host or cells: baculovirus expression system
T20 sequence (Q12866 528-999): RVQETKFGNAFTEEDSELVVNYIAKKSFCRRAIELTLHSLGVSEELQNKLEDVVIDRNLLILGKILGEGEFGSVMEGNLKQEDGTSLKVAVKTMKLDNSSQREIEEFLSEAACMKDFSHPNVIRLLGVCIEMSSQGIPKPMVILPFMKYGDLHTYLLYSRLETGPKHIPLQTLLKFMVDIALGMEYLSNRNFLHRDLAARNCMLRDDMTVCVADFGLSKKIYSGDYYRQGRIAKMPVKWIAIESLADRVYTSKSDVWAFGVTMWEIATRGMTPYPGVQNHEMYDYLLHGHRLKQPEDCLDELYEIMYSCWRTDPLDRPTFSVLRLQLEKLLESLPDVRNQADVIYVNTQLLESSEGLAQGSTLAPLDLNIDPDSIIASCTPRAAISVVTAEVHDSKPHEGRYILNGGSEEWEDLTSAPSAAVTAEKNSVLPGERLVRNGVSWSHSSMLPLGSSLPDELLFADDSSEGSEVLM
Protocol: as §2

T11 sequence (Q9NWZ3 172-460): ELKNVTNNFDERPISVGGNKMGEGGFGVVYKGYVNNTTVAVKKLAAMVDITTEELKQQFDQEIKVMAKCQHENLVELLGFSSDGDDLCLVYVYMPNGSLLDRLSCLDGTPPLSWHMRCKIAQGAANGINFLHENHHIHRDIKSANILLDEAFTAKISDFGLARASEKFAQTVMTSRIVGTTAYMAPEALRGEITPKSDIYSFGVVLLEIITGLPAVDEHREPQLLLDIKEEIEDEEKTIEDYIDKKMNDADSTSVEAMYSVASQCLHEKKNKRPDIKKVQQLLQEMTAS
T7 sequence (Q9H3Y6 215-488 limits assumed): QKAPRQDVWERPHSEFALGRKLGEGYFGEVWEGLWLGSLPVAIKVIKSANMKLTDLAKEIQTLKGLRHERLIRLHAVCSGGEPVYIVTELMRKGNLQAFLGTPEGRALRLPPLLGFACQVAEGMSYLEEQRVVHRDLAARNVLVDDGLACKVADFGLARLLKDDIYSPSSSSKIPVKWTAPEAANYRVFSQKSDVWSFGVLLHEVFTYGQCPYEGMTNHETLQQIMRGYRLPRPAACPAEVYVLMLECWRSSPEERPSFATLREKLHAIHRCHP
T14 sequence (P07947 whole entry): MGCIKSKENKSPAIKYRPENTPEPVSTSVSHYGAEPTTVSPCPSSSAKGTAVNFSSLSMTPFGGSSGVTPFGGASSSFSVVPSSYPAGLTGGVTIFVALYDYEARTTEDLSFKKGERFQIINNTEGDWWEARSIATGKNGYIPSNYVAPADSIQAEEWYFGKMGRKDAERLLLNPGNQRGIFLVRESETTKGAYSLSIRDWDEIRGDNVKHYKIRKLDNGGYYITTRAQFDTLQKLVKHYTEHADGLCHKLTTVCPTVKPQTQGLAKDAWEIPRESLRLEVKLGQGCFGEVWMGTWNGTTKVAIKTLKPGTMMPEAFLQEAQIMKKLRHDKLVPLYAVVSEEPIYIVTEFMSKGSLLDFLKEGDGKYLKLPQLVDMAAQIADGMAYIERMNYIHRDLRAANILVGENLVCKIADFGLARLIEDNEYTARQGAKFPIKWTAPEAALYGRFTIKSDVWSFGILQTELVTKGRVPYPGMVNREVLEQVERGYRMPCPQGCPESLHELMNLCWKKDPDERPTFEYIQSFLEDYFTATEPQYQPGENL
T18 sequence (P52333 795-1124): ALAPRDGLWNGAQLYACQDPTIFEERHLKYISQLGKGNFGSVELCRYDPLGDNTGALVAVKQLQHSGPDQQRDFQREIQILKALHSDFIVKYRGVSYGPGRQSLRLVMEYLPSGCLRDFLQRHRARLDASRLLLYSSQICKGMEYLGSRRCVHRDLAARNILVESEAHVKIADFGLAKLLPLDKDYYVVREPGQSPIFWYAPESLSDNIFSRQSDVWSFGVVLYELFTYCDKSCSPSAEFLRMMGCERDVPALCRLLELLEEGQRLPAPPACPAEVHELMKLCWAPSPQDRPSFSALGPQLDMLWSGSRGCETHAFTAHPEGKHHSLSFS
T16 sequence (Q16566 whole entry): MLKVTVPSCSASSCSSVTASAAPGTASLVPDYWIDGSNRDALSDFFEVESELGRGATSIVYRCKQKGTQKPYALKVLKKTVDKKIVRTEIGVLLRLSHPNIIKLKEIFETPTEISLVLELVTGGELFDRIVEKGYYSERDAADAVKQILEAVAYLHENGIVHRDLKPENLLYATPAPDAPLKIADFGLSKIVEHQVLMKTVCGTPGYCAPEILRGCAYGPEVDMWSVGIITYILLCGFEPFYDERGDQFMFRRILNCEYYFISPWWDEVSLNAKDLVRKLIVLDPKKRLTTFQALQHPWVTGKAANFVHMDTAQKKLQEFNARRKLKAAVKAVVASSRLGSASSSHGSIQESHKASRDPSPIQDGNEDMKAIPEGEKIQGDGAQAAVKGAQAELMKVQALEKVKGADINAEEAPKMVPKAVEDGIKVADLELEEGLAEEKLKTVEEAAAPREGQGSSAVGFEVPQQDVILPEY
T4 sequence (P54760 577-987): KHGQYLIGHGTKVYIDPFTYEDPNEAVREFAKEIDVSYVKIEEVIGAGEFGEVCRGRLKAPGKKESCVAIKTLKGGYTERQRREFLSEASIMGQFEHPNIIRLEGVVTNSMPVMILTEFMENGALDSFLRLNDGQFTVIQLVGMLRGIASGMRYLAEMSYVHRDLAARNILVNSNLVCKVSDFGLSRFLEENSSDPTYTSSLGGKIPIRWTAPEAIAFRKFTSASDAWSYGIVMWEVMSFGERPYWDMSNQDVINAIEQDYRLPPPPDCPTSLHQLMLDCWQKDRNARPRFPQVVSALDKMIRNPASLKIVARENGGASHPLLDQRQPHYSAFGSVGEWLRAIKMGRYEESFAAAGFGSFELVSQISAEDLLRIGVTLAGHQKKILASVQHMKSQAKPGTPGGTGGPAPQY
T1 sequence (P06239 whole entry): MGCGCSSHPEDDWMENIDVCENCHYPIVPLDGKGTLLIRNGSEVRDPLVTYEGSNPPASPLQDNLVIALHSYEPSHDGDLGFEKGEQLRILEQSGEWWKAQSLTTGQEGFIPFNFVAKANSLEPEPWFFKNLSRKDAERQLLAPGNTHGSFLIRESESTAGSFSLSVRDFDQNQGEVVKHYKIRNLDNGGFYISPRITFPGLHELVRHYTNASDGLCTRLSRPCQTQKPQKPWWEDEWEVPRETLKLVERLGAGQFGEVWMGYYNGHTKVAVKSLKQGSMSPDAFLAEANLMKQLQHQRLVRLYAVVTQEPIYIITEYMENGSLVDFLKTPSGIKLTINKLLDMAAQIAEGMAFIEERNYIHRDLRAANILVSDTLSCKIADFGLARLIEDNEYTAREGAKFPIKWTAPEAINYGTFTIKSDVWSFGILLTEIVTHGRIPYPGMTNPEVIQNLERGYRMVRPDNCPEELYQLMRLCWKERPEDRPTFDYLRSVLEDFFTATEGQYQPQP
T10 sequence (Q9UM73 1089-1620): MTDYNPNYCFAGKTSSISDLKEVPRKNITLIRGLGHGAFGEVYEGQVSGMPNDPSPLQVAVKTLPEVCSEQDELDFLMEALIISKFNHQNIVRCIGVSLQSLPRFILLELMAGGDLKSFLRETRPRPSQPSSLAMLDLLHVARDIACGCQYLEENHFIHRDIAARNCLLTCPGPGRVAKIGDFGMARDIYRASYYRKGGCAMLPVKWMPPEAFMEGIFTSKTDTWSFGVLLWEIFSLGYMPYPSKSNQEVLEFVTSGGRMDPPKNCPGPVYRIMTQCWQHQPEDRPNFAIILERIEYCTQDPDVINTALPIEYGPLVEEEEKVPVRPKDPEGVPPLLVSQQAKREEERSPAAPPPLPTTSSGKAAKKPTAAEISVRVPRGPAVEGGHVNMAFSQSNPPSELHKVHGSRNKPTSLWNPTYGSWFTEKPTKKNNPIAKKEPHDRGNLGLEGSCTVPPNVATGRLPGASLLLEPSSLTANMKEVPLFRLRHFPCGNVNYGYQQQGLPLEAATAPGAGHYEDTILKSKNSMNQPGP
T6 sequence (P16234 550-1089): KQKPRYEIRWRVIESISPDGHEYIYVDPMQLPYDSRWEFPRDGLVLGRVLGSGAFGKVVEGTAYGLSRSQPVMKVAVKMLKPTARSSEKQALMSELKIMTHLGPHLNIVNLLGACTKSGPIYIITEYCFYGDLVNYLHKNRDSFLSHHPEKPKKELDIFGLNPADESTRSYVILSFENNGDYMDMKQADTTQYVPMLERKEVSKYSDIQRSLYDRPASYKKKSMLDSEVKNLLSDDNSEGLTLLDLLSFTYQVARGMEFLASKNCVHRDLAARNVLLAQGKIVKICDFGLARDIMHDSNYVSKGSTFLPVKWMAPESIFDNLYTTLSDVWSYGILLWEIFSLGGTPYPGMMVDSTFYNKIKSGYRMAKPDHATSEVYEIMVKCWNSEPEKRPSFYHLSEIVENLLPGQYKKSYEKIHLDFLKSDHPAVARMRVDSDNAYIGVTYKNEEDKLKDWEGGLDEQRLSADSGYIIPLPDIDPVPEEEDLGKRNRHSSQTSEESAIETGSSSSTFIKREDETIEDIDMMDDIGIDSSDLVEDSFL
T12 sequence (O96017 whole entry): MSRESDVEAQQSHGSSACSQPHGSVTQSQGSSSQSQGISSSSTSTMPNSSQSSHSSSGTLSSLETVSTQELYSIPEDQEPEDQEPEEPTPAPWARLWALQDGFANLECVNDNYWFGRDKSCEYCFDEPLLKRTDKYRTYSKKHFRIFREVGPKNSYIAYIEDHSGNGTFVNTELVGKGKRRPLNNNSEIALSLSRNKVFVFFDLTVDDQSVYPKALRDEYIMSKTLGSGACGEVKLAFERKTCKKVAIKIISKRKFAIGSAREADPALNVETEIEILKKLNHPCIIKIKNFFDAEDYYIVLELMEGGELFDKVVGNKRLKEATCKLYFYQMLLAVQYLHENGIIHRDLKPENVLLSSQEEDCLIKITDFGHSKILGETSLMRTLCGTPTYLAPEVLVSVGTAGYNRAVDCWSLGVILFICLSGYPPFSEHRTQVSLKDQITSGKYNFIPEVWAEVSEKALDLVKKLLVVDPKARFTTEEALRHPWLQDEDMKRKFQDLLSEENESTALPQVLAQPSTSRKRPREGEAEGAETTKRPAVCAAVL

COC(=O)[C@]1(O)CC2O[C@@]1(C)n1c3ccccc3c3c4c(c5c6ccccc6n2c5c31)C(=O)NC4 [K-252a]
inhibition at 0.2 µM (LCK): 65.2%
inhibition at 0.2 µM (TYK2): 98.1%
inhibition at 0.2 µM (FLT3): 95.8%
inhibition at 0.2 µM (EphB4): 13.3%
inhibition at 0.2 µM (FGFR2): 67.2%
inhibition at 0.2 µM (PDGFRα): 96.1%
inhibition at 0.2 µM (SRM): 0.4%
inhibition at 0.2 µM (CaMK2α): 83.9%
inhibition at 0.2 µM (TrkB): 98.2%
inhibition at 0.2 µM (ALK): 69.5%
inhibition at 0.2 µM (IRAK4): 51.9%
inhibition at 0.2 µM (CHK2): 93.9%
inhibition at 0.2 µM (LYNa): 58.9%
inhibition at 0.2 µM (YES): 65.1%
inhibition at 0.2 µM (RON): 5.2%
inhibition at 0.2 µM (CaMK4): 0%
inhibition at 0.2 µM (PKACα): 69.4%
inhibition at 0.2 µM (JAK3): 100%
inhibition at 0.2 µM (FGR): 85.6%
inhibition at 0.2 µM (MER): 80.8%
